Measurements as given in patent publication US20230017045A1, “PYRIDINE AND PYRIMIDINE CARBOXYLATE HERBICIDES AND METHODS OF USE THEREOF” (Dow AgroSciences LLC, priority 2017, published 2023).
Read-outs that look alike come from different tables or passages of the source.

Tested on: test plant species
Test: Post-emergent herbicidal activity test (greenhouse, foliar spray, visual growth reduction)
Assay type: in vivo
Settings: post-emergence, 336 h, 140 g ai/ha
In short: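 Plants grown in greenhouse (15 h photoperiod, 23-29° C day/22-28° C night) to first or second true leaf stage were sprayed overhead with compound in acetone/water/isopropanol/DMSO/crop oil/X-77 carrier at 187 L/ha. Injury was scored visually after 14 d on a 0-100% scale versus solvent-blank and untreated controls.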

[1] = ALOMY: blackgrass (Alopecurus myosuroides), 14 days after application, read-out: Visual Growth Reduction (%) 14 Days After Application, ALOMY
[2] = AMARE: redroot pigweed (Amaranthus retroflexus), 14 days after application, read-out: Visual Growth Reduction (%) 14 Days After Application, AMARE
[3] = AVEFA: wild oat (Avena fatua), 14 days after application, read-out: Visual Growth Reduction (%) 14 Days After Application, AVEFA
[4] = CHEAL: lambsquarters (Chenopodium album), 14 days after application, read-out: Visual Growth Reduction (%) 14 Days After Application, CHEAL
[5] = CIRAR: canada thistle (Cirsium arvense), 14 days after application, read-out: Visual Growth Reduction (%) 14 Days After Application, CIRAR
[6] = CYPES: yellow nutsedge (Cyperus esculentus), 14 days after application, read-out: Visual Growth Reduction (%) 14 Days After Application, CYPES
[7] = DIGSA: crabgrass (Digitaria sanguinalis), 14 days after application, read-out: Visual Growth Reduction (%) 14 Days After Application, DIGSA
[8] = ECHCG: barnyardgrass (Echinochloa crus-galli), 14 days after application, read-out: Visual Growth Reduction (%) 14 Days After Application, ECHCG
[9] = IPOHE: ivy-leaf morning glory (Ipomoea hederacea), 14 days after application, read-out: Visual Growth Reduction (%) 14 Days After Application, IPOHE
[10] = KCHSC: kochia (Bassia scoparia), 14 days after application, read-out: Visual Growth Reduction (%) 14 Days After Application, KCHSC
[11] = ORYSA: rice (Oryza sativa), 14 days after application, read-out: Visual Growth Reduction (%) 14 Days After Application, ORYSA
[12] = SETFA: giant foxtail (Setaria faberi), 14 days after application, read-out: Visual Growth Reduction (%) 14 Days After Application, SETFA
[13] = SORVU: grain sorghum (Sorghum vulgare), 14 days after application, read-out: Visual Growth Reduction (%) 14 Days After Application, SORVU
[14] = STEME: common chickweed (Stellaria media), 14 days after application, read-out: Visual Growth Reduction (%) 14 Days After Application, STEME
[15] = TRZAS: wheat, spring (Triticum aestivum), 14 days after application, read-out: Visual Growth Reduction (%) 14 Days After Application, TRZAS
[16] = blackgrass (Alopecurus myosuroides), 14 Days After Application, read-out: Visual Growth Reduction (%) ALOMY
[17] = canada thistle (Cirsium arvense), 14 Days After Application, read-out: Visual Growth Reduction (%) CIRAR
[18] = crabgrass (Digitaria sanguinalis), 14 Days After Application, read-out: Visual Growth Reduction (%) DIGSA
[19] = lambsquarters (Chenopodium album), 14 Days After Application, read-out: Visual Growth Reduction (%) CHEAL
[20] = redroot pigweed (Amaranthus retroflexus), 14 Days After Application, read-out: Visual Growth Reduction (%) AMARE
[21] = wild oat (Avena fatua), 14 Days After Application, read-out: Visual Growth Reduction (%) AVEFA
[22] = yellow nutsedge (Cyperus esculentus), 14 Days After Application, read-out: Visual Growth Reduction (%) CYPES

SMILES | pest or weed control at 140 g/ha [1] [%] | pest or weed control at 140 g/ha [2] [%] | pest or weed control at 140 g/ha [3] [%] | pest or weed control at 140 g/ha [4] [%] | pest or weed control at 140 g/ha [5] [%] | pest or weed control at 140 g/ha [6] [%] | pest or weed control at 140 g/ha [7] [%] | pest or weed control at 140 g/ha [8] [%] | pest or weed control at 140 g/ha [9] [%] | pest or weed control at 140 g/ha [10] [%] | pest or weed control at 140 g/ha [11] [%] | pest or weed control at 140 g/ha [12] [%] | pest or weed control at 140 g/ha [13] [%] | pest or weed control at 140 g/ha [14] [%] | pest or weed control at 140 g/ha [15] [%] | pest or weed control at 140 g/ha [16] [%] | pest or weed control at 140 g/ha [18] [%] | pest or weed control at 140 g/ha [19] [%] | pest or weed control at 140 g/ha [20] [%] | pest or weed control at 140 g/ha [21] [%] | also measured
C=Cc1c(C(F)(F)F)ccc(-c2ccc(Cl)c(C(=O)OC)n2)c1Cl [F137, methyl 3-chloro-6-(2-chloro-4-(trifluoromethyl)-3-vinylphenyl)picolinate] | 0 to 29 | 60 to 74 | 0 to 29 | 75 to 84 | 0 to 29 | 0 to 29 | 30 to 44 | 0 to 29 | 95 to 100 | 0 to 29 | 0 to 29 | 0 to 29 | 60 to 74 | 0 to 29 | 0 to 29 | – | – | – | – | – | –
COC(=O)c1nc(-c2ccc(OC(F)(F)F)cc2F)c(F)cc1Cl [F187, Methyl 3-chloro-5-fluoro-6-(2-fluoro-4-(trifluoromethoxy)phenyl)picolinate] | 0 to 29 | 85 to 94 | 30 to 44 | 75 to 84 | 75 to 84 | 30 to 44 | 85 to 94 | 45 to 59 | 95 to 100 | 45 to 59 | 0 to 29 | 75 to 84 | 95 to 100 | 0 to 29 | 30 to 44 | – | – | – | – | – | –
COC(=O)c1nc(-c2ccc(Cl)c(C(F)F)c2F)ccc1Cl [F273, Methyl 3-chloro-6-(4-chloro-3-(difluoromethyl)-2-fluorophenyl) picolinate] | – | – | – | – | – | – | – | 0 to 29 | 75 to 84 | 0 to 29 | 0 to 29 | 0 to 29 | 75 to 84 | 0 to 29 | 0 to 29 | 0 to 29 | 60 to 74 | 75 to 84 | 0 to 29 | 0 to 29 | pest or weed control at 140 g/ha [17]: 30 to 44%; pest or weed control at 140 g/ha [22]: 0 to 29%
COC(=O)c1nc(-c2ccc(OC(F)(F)F)cc2Cl)ccc1Cl [F58, Methyl 3-chloro-6-(2-chloro-4-(trifluoromethoxy)phenyl)picolinate] | 30 to 44 | 95 to 100 | 45 to 59 | 60 to 74 | 95 to 100 | 0 to 29 | 85 to 94 | 0 to 29 | 95 to 100 | 30 to 44 | 0 to 29 | 75 to 84 | 85 to 94 | – | – | – | – | – | – | – | –
COC(=O)c1nc(-c2ccc(C(F)(F)F)c(C)c2Cl)c(F)cc1Cl [F339, Methyl 3-chloro-6-(2-chloro-3-methyl-4-(trifluoromethyl)phenyl)-5-fluoropicolinate] | – | – | – | – | – | – | – | 0 to 29 | 95 to 100 | 85 to 94 | 0 to 29 | 0 to 29 | 60 to 74 | 0 to 29 | 0 to 29 | 0 to 29 | 0 to 29 | 95 to 100 | 95 to 100 | 0 to 29 | pest or weed control at 140 g/ha [22]: 60 to 74%
COC(=O)c1nc(-c2ccc(Cl)c(OC)c2F)c(F)c(Cl)c1Cl [F74, Methyl 3,4-dichloro-6-(4-chloro-2-fluoro-3-methoxyphenyl)-5-fluoropicolinate] | 0 to 29 | 0 to 29 | 0 to 29 | 30 to 44 | 0 to 29 | 0 to 29 | 0 to 29 | 0 to 29 | 0 to 29 | – | 0 to 29 | 0 to 29 | 0 to 29 | 0 to 29 | 0 to 29 | – | – | – | – | – | –
COc1cc(C(F)(F)F)ccc1-c1nc(C(=O)O)c(Cl)cc1F [F190, 3-Chloro-5-fluoro-6-(2-methoxy-4-(trifluoromethyl)phenyl) picolinic acid] | 0 to 29 | 95 to 100 | 60 to 74 | 95 to 100 | 85 to 94 | 0 to 29 | 85 to 94 | 95 to 100 | 95 to 100 | 75 to 84 | 30 to 44 | 95 to 100 | 95 to 100 | 0 to 29 | 60 to 74 | – | – | – | – | – | –
COC(=O)c1nc(-c2ccc(C(F)(F)F)cc2Cl)c(C)cc1Cl [F5] | 0 to 29 | 0 to 29 | 0 to 29 | 45 to 59 | 0 to 29 | 30 to 44 | 0 to 29 | – | – | – | – | – | – | – | – | – | – | – | – | – | pest or weed control at 140 g/ha (barnyardgrass (Echinochloa crus-galli), 14 Days After Application, read-out: Visual Growth Reduction (%) ECHCG): 0 to 29%; pest or weed control at 140 g/ha (giant foxtail (Setaria faberi), 14 Days After Application, read-out: Visual Growth Reduction (%) SETFA): 0 to 29%; pest or weed control at 140 g/ha (ivy-leaf morning glory (Ipomoea hederacea), 14 Days After Application, read-out: Visual Growth Reduction (%) IPOHE): 30 to 44%; pest or weed control at 140 g/ha (johnsongrass (Sorghum vulgare), 14 Days After Application, read-out: Visual Growth Reduction (%) SORVU): 30 to 44%; pest or weed control at 140 g/ha (kochia (Bassia scoparia), 14 Days After Application, read-out: Visual Growth Reduction (%) KCHSC): 30 to 44%; pest or weed control at 140 g/ha (rice (Oryza sativa), 14 Days After Application, read-out: Visual Growth Reduction (%) ORYSA): 0 to 29%; pest or weed control at 140 g/ha (wheat, spring (Triticum aestivum), 14 Days After Application, read-out: Visual Growth Reduction (%) TRZAS): 0 to 29%
COC(=O)c1nc(-c2cc3nonc3cc2Cl)ccc1Cl [F261, Methyl 3-chloro-6-(6-chlorobenzo[c][1,2,5]oxadiazol-5-yl)picolinate] | – | – | – | – | – | – | – | 0 to 29 | 75 to 84 | 0 to 29 | 0 to 29 | 0 to 29 | 0 to 29 | 0 to 29 | 0 to 29 | 0 to 29 | 60 to 74 | 60 to 74 | 0 to 29 | 0 to 29 | pest or weed control at 140 g/ha [17]: 30 to 44%; pest or weed control at 140 g/ha [22]: 0 to 29%
